# Assay results taken from US9745321B2, “Fused pyrimidine compound, intermediate, preparation method therefor, and composition and application thereof” (SHANGHAI YINGLI PHARMACEUTICAL CO., LTD, priority 2013, dated 2017).
# How the values were obtained:
# PI3Kδ = PI3Kδ (Homo sapiens (Human), UniProt O00329); experiment: PI3Kδ enzyme activity inhibition IC50 evaluation assay; assay type: biochemical; details: luminescence, 25 μM ATP, 50 μM PIP2, 2 hrs room temperature
# Method: (§1) PI3Kα, PI3Kδ, PI3Kβ and PI3Kγ Enzyme Activity Inhibition IC50 Evaluation Assay
# • 1. Buffer preparation: 50 mM HEPES, pH 7.5, 3 mM MgCl2, 1 mM EGTA, 100 mM NaCl, 0.03% CHAPS. • 2. Compound was formulated in 100% DMSO in a concentration gradient, and added to a 384-well plate to a final DMSO concentration of 1%. • 3. PI3Kα, PI3Kδ, PI3Kβ and PI3Kγ enzymes were diluted to an optimum concentration with the following buffer: 50 mM HEPES, pH 7.5, 3 mM MgCl2, 1 mM EGTA, 100 mM NaCl, 0.03% CHAPS, 2 mM DTT, and transferred to a 384-well plate and incubated with the compound for a certain time. • 4. […] For PI3Kβ and PI3Kγ, it was still necessary to further add 10 μL ADP-Glo Detection Reagent, and then equilibrated at room temperature for 30 minutes. • 5. Read Luminescense with FlexStation, and calculate the inhibition rate as the average of two tests.
# PI3Kα = PI3Kα (Homo sapiens (Human), UniProt P42336); experiment: PI3Kα enzyme activity inhibition IC50 evaluation assay; assay type: biochemical; details: ratio PI3Kα vs PI3Kδ
# PI3Kα, sequence (P42336 whole entry): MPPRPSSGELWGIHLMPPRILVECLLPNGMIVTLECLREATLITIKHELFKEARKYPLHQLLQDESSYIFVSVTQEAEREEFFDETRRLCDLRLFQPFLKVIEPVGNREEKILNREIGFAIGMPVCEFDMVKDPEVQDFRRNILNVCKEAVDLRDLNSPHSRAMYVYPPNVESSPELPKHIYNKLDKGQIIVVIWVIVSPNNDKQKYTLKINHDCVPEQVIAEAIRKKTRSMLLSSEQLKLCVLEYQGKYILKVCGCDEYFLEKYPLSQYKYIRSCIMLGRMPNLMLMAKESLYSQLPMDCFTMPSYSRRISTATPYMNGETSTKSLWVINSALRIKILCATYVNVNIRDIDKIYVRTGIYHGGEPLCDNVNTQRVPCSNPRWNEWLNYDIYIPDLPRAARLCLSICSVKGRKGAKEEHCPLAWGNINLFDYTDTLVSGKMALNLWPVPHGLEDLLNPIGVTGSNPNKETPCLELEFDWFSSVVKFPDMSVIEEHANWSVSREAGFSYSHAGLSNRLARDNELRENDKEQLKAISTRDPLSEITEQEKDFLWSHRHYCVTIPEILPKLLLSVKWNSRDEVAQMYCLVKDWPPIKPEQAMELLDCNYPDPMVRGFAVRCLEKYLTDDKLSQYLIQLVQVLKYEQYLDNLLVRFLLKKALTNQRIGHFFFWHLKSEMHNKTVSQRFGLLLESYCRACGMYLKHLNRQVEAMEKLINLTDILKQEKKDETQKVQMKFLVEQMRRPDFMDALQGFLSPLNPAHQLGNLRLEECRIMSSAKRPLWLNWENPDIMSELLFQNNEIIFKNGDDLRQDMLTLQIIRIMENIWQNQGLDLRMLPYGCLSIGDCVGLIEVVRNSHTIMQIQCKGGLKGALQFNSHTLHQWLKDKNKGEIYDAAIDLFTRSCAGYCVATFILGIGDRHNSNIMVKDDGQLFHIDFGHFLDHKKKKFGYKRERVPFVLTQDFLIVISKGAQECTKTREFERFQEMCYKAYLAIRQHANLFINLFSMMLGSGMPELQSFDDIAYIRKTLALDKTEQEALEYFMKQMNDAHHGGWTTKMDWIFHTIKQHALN
# PI3Kα, sequence (P27986 whole entry partner): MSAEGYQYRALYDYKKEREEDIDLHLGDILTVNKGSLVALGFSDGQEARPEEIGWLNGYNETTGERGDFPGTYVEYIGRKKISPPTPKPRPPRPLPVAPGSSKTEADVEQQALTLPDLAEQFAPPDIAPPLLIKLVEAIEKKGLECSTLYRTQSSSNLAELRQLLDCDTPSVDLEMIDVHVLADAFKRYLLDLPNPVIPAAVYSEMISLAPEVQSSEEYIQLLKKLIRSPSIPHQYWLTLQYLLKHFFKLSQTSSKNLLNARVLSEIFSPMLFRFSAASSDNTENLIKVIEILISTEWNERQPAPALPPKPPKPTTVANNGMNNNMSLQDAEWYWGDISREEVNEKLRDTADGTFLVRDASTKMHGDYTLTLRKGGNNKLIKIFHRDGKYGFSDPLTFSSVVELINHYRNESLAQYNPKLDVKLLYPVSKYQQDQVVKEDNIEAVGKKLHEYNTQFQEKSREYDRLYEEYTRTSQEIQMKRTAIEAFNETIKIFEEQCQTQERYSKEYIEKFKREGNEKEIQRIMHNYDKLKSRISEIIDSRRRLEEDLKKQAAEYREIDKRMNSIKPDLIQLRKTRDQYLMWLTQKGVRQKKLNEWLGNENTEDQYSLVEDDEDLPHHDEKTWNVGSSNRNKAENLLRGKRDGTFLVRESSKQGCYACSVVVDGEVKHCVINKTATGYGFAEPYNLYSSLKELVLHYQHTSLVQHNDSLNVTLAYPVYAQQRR
# Method: as §1
# • 1. Buffer preparation: 50 mM HEPES, pH 7.5, 3 mM MgCl2, 1 mM EGTA, 100 mM NaCl, 0.03% CHAPS. • 2. Compound was formulated in 100% DMSO in a concentration gradient, and added to a 384-well plate to a final DMSO concentration of 1%. • 3. PI3Kα, PI3Kδ, PI3Kβ and PI3Kγ enzymes were diluted to an optimum concentration with the following buffer: 50 mM HEPES, pH 7.5, 3 mM MgCl2, 1 mM EGTA, 100 mM NaCl, 0.03% CHAPS, 2 mM DTT, and transferred to a 384-well plate and incubated with the compound for a certain time. • 4. Substrate was diluted to an optimum concentration with the following buffer: 50 mM HEPES, pH 7.5, 3 mM MgCl2, 1 mM EGTA, 100 mM NaCl, 0.03% CHAPS, 2 mM DTT, 50 μM PIP2, 25 μM ATP; then added to a 384-well plate to initiate the reaction, and for PI3Kα, PI3Kβ and PI3Kγ at room temperature reacted for 1 hr, for PI3Kδ at room temperature reacted for 2 hrs. For PI3Kβ and PI3Kγ, it was still necessary to further add 10 μL ADP-Glo Detection Reagent, and then equilibrated at room temperature for 30 minutes. • 5. Read Luminescense with FlexStation, and calculate the inhibition rate as the average of two tests.
# PI3Kδ, sequence (O00329 whole entry): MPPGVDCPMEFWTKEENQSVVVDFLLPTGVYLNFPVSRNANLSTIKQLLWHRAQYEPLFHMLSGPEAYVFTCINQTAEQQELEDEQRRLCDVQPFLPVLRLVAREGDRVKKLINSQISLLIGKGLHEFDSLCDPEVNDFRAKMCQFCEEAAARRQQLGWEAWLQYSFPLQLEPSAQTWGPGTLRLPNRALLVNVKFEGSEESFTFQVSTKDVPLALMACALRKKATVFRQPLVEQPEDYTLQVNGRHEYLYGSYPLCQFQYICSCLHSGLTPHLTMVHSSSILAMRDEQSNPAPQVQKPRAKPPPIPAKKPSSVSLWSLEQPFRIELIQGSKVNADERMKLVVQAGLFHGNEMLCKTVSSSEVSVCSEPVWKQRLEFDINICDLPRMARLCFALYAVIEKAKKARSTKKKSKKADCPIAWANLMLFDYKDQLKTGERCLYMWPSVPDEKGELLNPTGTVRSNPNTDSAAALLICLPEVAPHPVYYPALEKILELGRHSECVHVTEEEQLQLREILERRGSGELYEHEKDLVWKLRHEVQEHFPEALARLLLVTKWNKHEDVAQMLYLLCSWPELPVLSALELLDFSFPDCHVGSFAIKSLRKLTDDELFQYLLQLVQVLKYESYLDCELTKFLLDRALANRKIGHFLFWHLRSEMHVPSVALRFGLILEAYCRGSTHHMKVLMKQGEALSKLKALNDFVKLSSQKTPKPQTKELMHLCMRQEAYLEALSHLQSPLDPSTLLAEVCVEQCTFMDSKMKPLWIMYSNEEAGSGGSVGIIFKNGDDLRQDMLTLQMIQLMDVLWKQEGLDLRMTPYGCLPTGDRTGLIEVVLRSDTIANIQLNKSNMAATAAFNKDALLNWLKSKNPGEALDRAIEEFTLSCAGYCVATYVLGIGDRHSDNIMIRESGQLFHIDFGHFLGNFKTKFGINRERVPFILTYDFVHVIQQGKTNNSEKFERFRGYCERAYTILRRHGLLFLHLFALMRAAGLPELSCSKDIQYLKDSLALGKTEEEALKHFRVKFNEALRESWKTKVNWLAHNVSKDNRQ
# PI3Kδ, sequence (P27986 whole entry partner): as the sequence (P27986 whole entry partner) above
smiles,measurement,setting,value
CS(=O)(=O)N1CCN(Cc2csc3c(-c4c(F)ccc5[nH]ccc45)nc(N4CCOCC4)nc23)CC1 [Compound 1],IC50,PI3Kδ,105 nM
same,α/δ selectivity,PI3Kα,12
Cc1cc2c(-c3nc(N4CCOCC4)nc4c(CN5CCC(C(C)(C)O)CC5)csc34)cccc2[nH]1 [Compound 6],IC50,PI3Kδ,145 nM
same,α/δ selectivity,PI3Kα,>69
c1cc(-c2nc(N3CCOCC3)nc3c(CN4CCC(N5CCOCC5)CC4)csc23)c2cc[nH]c2c1 [Compound 9],IC50,PI3Kδ,50 nM
same,α/δ selectivity,PI3Kα,>200
O=C(CO)N1CCN(Cc2csc3c(-c4cccc5[nH]ccc45)nc(N4CCOCC4)nc23)CC1 [Compound 12],IC50,PI3Kδ,17 nM
same,α/δ selectivity,PI3Kα,133
CC(C)(O)CN1CCN(Cc2csc3c(-c4cccc5[nH]ccc45)nc(N4CCOCC4)nc23)CC1 [Compound 13],IC50,PI3Kδ,52 nM
same,α/δ selectivity,PI3Kα,>192
CC(C)(C)N1CCN(Cc2csc3c(-c4cccc5[nH]ccc45)nc(N4CCOCC4)nc23)CC1 [Compound 15],IC50,PI3Kδ,34 nM
same,α/δ selectivity,PI3Kα,>294
Cc1oc2ccccc2c1-c1nc(N2CCOCC2)nc2c(CN3CCN(C(=O)C(C)C)CC3)csc12 [Compound 16],IC50,PI3Kδ,567 nM
same,α/δ selectivity,PI3Kα,18
CC(C)(O)C1CCN(Cc2csc3c(-c4ccnc5[nH]ccc45)nc(N4CCOCC4)nc23)CC1 [Compound 17],IC50,PI3Kδ,53 nM
same,α/δ selectivity,PI3Kα,74
CCC(=O)N1CCN(Cc2csc3c(-c4cnn(C)c4)nc(N4CCOCC4)nc23)CC1 [Compound 18],IC50,PI3Kδ,86 nM
same,α/δ selectivity,PI3Kα,58
CC(C)C(=O)N1CCN(Cc2csc3c(-c4cnn(C)c4)nc(N4CCOCC4)nc23)CC1 [Compound 19],IC50,PI3Kδ,87 nM
same,α/δ selectivity,PI3Kα,49
Cc1cn(-c2nc(N3CCOCC3)nc3c(CN4CCN(C(=O)C(C)C)CC4)csc23)c(C)n1 [Compound 20],IC50,PI3Kδ,66 nM
same,α/δ selectivity,PI3Kα,54
Cc1nn(C)c(C)c1-c1nc(N2CCOCC2)nc2c(CN3CCN(C(=O)C(C)C)CC3)csc12 [Compound 21],IC50,PI3Kδ,150 nM
same,α/δ selectivity,PI3Kα,19
Cc1nc(Cl)cn1-c1nc(N2CCOCC2)nc2c(CN3CCN(C(=O)C(C)C)CC3)csc12 [Compound 23],IC50,PI3Kδ,27 nM
same,α/δ selectivity,PI3Kα,40
COc1ncc(-c2nc(N3CCOCC3)nc3c(CN4C[C@@H](C)O[C@@H](C)C4)csc23)cc1NS(C)(=O)=O [Compound 27],IC50,PI3Kδ,99 nM
same,α/δ selectivity,PI3Kα,10
COc1ncc(-c2nc(N3CCOCC3)nc3c(CN4CCN(C(=O)OC(C)(C)C)CC4)csc23)cc1NS(C)(=O)=O [Compound 28],IC50,PI3Kδ,35 nM
same,α/δ selectivity,PI3Kα,56
COc1ncc(-c2nc(N3CCOCC3)nc3c(CN4CCN(C5COC5)CC4)csc23)cc1NS(C)(=O)=O [Compound 29],IC50,PI3Kδ,6.9 nM
same,α/δ selectivity,PI3Kα,34
CC(C)C(=O)N1CCN(Cc2csc3c(-n4ccnc4C(F)(F)F)nc(N4CCOCC4)nc23)CC1 [Compound 30],IC50,PI3Kδ,71 nM
same,α/δ selectivity,PI3Kα,36
CC(C)C(=O)N1CCN(Cc2csc3c(-c4cncc(NS(C)(=O)=O)c4)nc(N4CCOCC4)nc23)CC1 [Compound 31],IC50,PI3Kδ,4.9 nM
same,α/δ selectivity,PI3Kα,10
COc1ncc(-c2nc(N3CCOCC3)nc3c(CN4CCN(C(C)=O)CC4)csc23)cc1NS(C)(=O)=O [Compound 32],IC50,PI3Kδ,4.3 nM
same,α/δ selectivity,PI3Kα,15
COc1ncc(-c2nc(N3CCOCC3)nc3c(CN4CCN(C5CCOCC5)CC4)csc23)cc1NS(C)(=O)=O [Compound 33],IC50,PI3Kδ,4.2 nM
same,α/δ selectivity,PI3Kα,51
COc1ncc(-c2nc(N3CCOCC3)nc3c(CN4CCN(C(C)(C)C)CC4)csc23)cc1NS(C)(=O)=O [Compound 34],IC50,PI3Kδ,3.4 nM
same,α/δ selectivity,PI3Kα,44
COc1ncc(-c2nc(N3CCOCC3)nc3c(CN4CCOCC4)csc23)cc1NS(C)(=O)=O [Compound 36],IC50,PI3Kδ,13 nM
same,α/δ selectivity,PI3Kα,23
Cc1cn(-c2nc(N3CCOCC3)nc3c(CN4CCN(C(=O)C5CC5)CC4)csc23)c(C)n1 [Compound 37],IC50,PI3Kδ,28.9 nM
same,α/δ selectivity,PI3Kα,38
COc1ncc(-c2nc(N3CCOCC3)nc3ccoc23)cc1NS(C)(=O)=O [Compound 38],IC50,PI3Kδ,108 nM
same,α/δ selectivity,PI3Kα,3
COc1ncc(-c2nc(N3CCOCC3)nc3c(CN4CCN(C5CCN(C)CC5)CC4)csc23)cc1NS(C)(=O)=O [Compound 39],IC50,PI3Kδ,9.2 nM
same,α/δ selectivity,PI3Kα,159
COc1ncc(-c2nc(N3CCOCC3)nc3c(CN4CCN(C(=O)C5CCCCC5)CC4)csc23)cc1NS(C)(=O)=O [Compound 40],IC50,PI3Kδ,17 nM
same,α/δ selectivity,PI3Kα,41
COc1ncc(-c2nc(N3CCOCC3)nc3c(CN4CCC(C(C)(C)O)CC4)csc23)cc1NS(=O)(=O)c1ccccc1 [Compound 41],IC50,PI3Kδ,11.4 nM
same,α/δ selectivity,PI3Kα,323
COc1ncc(-c2nc(N3CCOCC3)nc3c(CN4CCC(C(=O)NCC(F)(F)F)CC4)csc23)cc1NS(C)(=O)=O [Compound 42],IC50,PI3Kδ,13 nM
same,α/δ selectivity,PI3Kα,152
COc1ncc(-c2nc(N3CCOCC3)nc3c(CN4CCC(N(C)C)CC4)csc23)cc1NS(C)(=O)=O [Compound 43],IC50,PI3Kδ,4 nM
same,α/δ selectivity,PI3Kα,105
COc1ncc(-c2nc(N3CCOCC3)nc3c(CN4CCN(C(=O)C(C)(C)C)CC4)csc23)cc1NS(C)(=O)=O [Compound 46],IC50,PI3Kδ,6.1 nM
same,α/δ selectivity,PI3Kα,23
COc1ncc(-c2nc(N3CCOCC3)nc3c(CN4CCN(C(=O)C(C)C)CC4)csc23)cc1NS(C)(=O)=O [Compound 47],IC50,PI3Kδ,3.5 nM
same,α/δ selectivity,PI3Kα,9
COc1ncc(-c2nc(N3CCOCC3)nc3c(CN4CC5CC4CN5C4COC4)csc23)cc1NS(C)(=O)=O (stereo not shown) [Compound 48],IC50,PI3Kδ,6.9 nM
same,α/δ selectivity,PI3Kα,52
COc1ncc(-c2nc(N3CCOCC3)nc3c(CN4CCN(C(=O)N5CCCC5)CC4)csc23)cc1NS(C)(=O)=O [Compound 49],IC50,PI3Kδ,5.7 nM
same,α/δ selectivity,PI3Kα,15
COc1ncc(-c2nc(N3CCOCC3)nc3c(CN4CCC(C(C)(C)O)CC4)csc23)cc1NS(=O)(=O)C1CC1 [Compound 50],IC50,PI3Kδ,13 nM
same,α/δ selectivity,PI3Kα,359
COc1ncc(-c2nc(N3CCOCC3)nc3c(CN4CCN(C)CC4)csc23)cc1NS(C)(=O)=O [Compound 51],IC50,PI3Kδ,11 nM
same,α/δ selectivity,PI3Kα,103
COc1ncc(-c2nc(N3CCOCC3)nc3c(CN4CCC(N(C)C(=O)OC(C)(C)C)CC4)csc23)cc1NS(C)(=O)=O [Compound 52],IC50,PI3Kδ,36 nM
same,α/δ selectivity,PI3Kα,252
COc1ncc(-c2nc(N3CCOCC3)nc3c(CN4CC(C(C)(C)O)C4)csc23)cc1NS(C)(=O)=O [Compound 53],IC50,PI3Kδ,19 nM
same,α/δ selectivity,PI3Kα,110
COc1ncc(-c2nc(N3CCOCC3)nc3c(CN4CCC(C(C)(C)OC)CC4)csc23)cc1NS(C)(=O)=O [Compound 54],IC50,PI3Kδ,2.7 nM
same,α/δ selectivity,PI3Kα,108
COc1ncc(-c2nc(N3CCOCC3)nc3c(CN4CCC(N5C[C@@H](C)O[C@@H](C)C5)CC4)csc23)cc1NS(C)(=O)=O [Compound 55],IC50,PI3Kδ,5.6 nM
same,α/δ selectivity,PI3Kα,224
CCN(C)C1CCN(Cc2csc3c(-c4cnc(OC)c(NS(C)(=O)=O)c4)nc(N4CCOCC4)nc23)CC1 [Compound 56],IC50,PI3Kδ,7.6 nM
same,α/δ selectivity,PI3Kα,293
COc1ncc(-c2nc(N3CCOCC3)nc3c(CN4CCN(C(C)(C)C(N)=O)CC4)csc23)cc1NS(C)(=O)=O [Compound 57],IC50,PI3Kδ,2.8 nM
same,α/δ selectivity,PI3Kα,103
COc1ncc(-c2nc(N3CCOCC3)nc3c(CN4CCC(N(C)C(C)C)CC4)csc23)cc1NS(C)(=O)=O [Compound 58],IC50,PI3Kδ,5.4 nM
same,α/δ selectivity,PI3Kα,150
COc1ncc(-c2nc(N3CCOCC3)nc3c(CN4CCN(S(C)(=O)=O)CC4)c(C)sc23)cc1NS(C)(=O)=O [Compound 61],IC50,PI3Kδ,4.7 nM
same,α/δ selectivity,PI3Kα,12
COc1ncc(-c2nc(N3CCOCC3)nc3c(CN4CCN(C(=O)C(F)(F)F)CC4)csc23)cc1NS(C)(=O)=O [Compound 62],IC50,PI3Kδ,5.6 nM
same,α/δ selectivity,PI3Kα,104
COc1ncc(-c2nc(N3CCOCC3)nc3c(CN4CCN(C(=O)NCC(F)(F)F)CC4)csc23)cc1NS(C)(=O)=O [Compound 63],IC50,PI3Kδ,12 nM
same,α/δ selectivity,PI3Kα,27
COc1ncc(-c2nc(N3CCOCC3)nc3c(CN4CCN(CC(F)(F)F)CC4)csc23)cc1NS(C)(=O)=O [Compound 64],IC50,PI3Kδ,9.1 nM
same,α/δ selectivity,PI3Kα,110
COc1ncc(-c2nc(N3CCOCC3)nc3c(CN4CCN(C(C)(C)C)CC4)csc23)cc1NS(=O)(=O)C1CC1 [Compound 67],IC50,PI3Kδ,3.6 nM
same,α/δ selectivity,PI3Kα,195
